From patent US9226907B2 (priority 2008, dated 2016)

Key:
clinical = settings: in vivo
Source text: Hydrocodone is structurally similar to other opioid analgesics (hydromorphone and oxycodone).

[1] = in vivo
[2] = higher drug concentrations associated with overdosage (280 μg/mL); cited from earlier work

Q: Which results are given for `CC(=O)Nc1ccc(O)cc1` [acetaminophen, 4′-hydroxyacetanilide]?
A: Effect of food on Cmax or AUC (clinical; human): no effect on Cmax or AUC; Time by which steady state was achieved (clinical; human): ≤ 24 h; Vd (clinical; human): 78 to 245 L; Cmax and AUC versus dose (clinical): proportional to dose; Variability in exposures (Cmax and AUC) ([1]; human): not affected by ethanol coadministration; AUC with different ethanol concentrations versus 0% ethanol [1]: equivalent to that of Vicodin CR alone; Bound to plasma proteins [2]: 15-21%
